Laboratory results from US20240148623A1, “GADUSOL AND GADUSPORINE COMPOUND FORMULATIONS FOR TOPICALS” (GADUSOL LABORATORIES, INC., priority 2021, published 2024).
Like-named read-outs stand apart in the source and are kept apart here.

How the values were obtained:
E. coli = experiment: Toxicity towards E. coli; format: cell-based
[1] = Antioxidant capacity, Folin-Ciocalteu method; conditions: 0.3 to 10 mg/ml, versus porphyra-334
Vero E6 fibroblasts = experiment: Cellular toxicity in Vero E6 fibroblasts; format: cell-based; conditions: compared to oxybenzone
From the text: (§1) The cellular toxicity of gadusol was compared to that of a common sunscreen ingredient, oxybenzone. Vero E6 fibroblasts were used to evaluate toxicity.

cells = experiment: In vivo antioxidant testing (intracytoplasmic activity in cells); format: cell-based; conditions: for lysis of the cells: highest dose 3.3 mg/ml
Protocol: The test is designed to measure antioxidant power but requires also that the anti-oxidant agent cross the cell's lipid boundary layer so that only intracytoplasmic activity is measured. […] Some activity was seen even at concentrations below 0.1 mg/ml.

[2] = Storage stability of gadusol; format: physicochemical; conditions: after 90 days at pH 2.5
From the text: Addition of an antioxidant could be helpful in increasing the shelf life of gadusol. The stability of gadusol is much higher when stored under acidic conditions. For example, 90% activity was retained after 90 days at pH 2.5. Therefore, storage under acidic conditions may be useful for stabilizing gadusol generally, e.g., prior to introduction into a topical formulation. Combining gadusol with another antioxidant may be useful for extending the shelf life or stability of gadusol in a topical formulation. Storage of gadusol in nitrogen-purged solutions in containers with minimal headspace increased its stability.

Comet assay = format: cell-based
From the text: as §1

Ames test (mutagenicity) = format: cell-based
[3] = cited from earlier work
[4] = UV absorbance (absorption maximum, molar extinction coefficient); format: physicochemical; conditions: for UV maximum: under acidic conditions
From the text: Gadusol, gadusporine A 100, gadusporine, B 102, and gadusporine C 104 may be isolated by column purification of Streptomyces coelicolor culture broth (as described in the above publication).
Despite the only difference being a hydroxy group, there are a few notable differences between shinorine and gadusporine A 100. Shinorine has been reported to have an absorption max=330 nm at pH 1.7 and an absorption max=334 nm at pH 7. […] Gadusporine A 100 has a molar extinction coefficient (□□=49,400, as measured in 50 mM phosphate buffer at pH 7.0, which is slightly higher than that of shinorine (□□=44,000), and thus has stronger UV absorbance activity.

Solubility in methanol = format: physicochemical
From the text: Gadusporine B 102 contains L-alanine and glycine, making gadusporine B 102 an analog of mycosporine-glycine-alanine.

COC1=C(O)CC(O)(CO)C(O)C1=O (stereo not shown) [Gadusol]
toxicity towards E. coli (E. coli): nor toxic towards E. coli
antioxidant power [1]: equivalent to a mycosporine compound
cellular toxicity (Vero E6 fibroblasts): less toxic than oxybenzone
in vivo antioxidant activity (cells; at about 1 mg/ml, versus the mycosporine): significantly more active antioxidant
lysis of the cells (cells): some lysis of the cells
in vivo antioxidant activity (cells; overall, compared with porphyra-334): outperformed porphyra-334
activity retained [2]: 90%
toxicity in comet assay (Comet assay): nor toxic in the comet assay
mutagenicity (Ames test (mutagenicity)): not to be mutagenic

COC1=C(NCC(=O)O)C[C@@](O)(CO)C/C1=N\[C@@H](CO)C(=O)O [Shinorine]
absorption max ([3]; pH 1.7, reported): 330 nm
absorption max ([3]; pH 7, reported): 334 nm
molar extinction coefficient ([3]; shinorine comparison value): 44,000

COC1=C(NCC(=O)O)C[C@@](O)(CO)CC1=N[C@H](C(=O)O)[C@@H](C)O [porphyra-334, reference compound]
lysis of the cells (cells): some lysis of the cells

Gadusporine A
molar extinction coefficient ([4]; 50 mM phosphate buffer at pH 7.0, in M-1 cm-1 (unit assumed)): 49,400
absorption max ([4]; pH 2.0): 338
absorption max ([4]; pH 7.0): 340 nm
UV maximum [4]: 338 nm

Gadusporine B
UV maximum [4]: 338 nm
solubility in methanol (Solubility in methanol): not very soluble in methanol
